# Assay results published in patent US20220228112A1, “MEDIUM FOR CULTURING HEPATOCYTE, METHOD OF PRODUCING HEPATOCYTE, AND HEPATOCYTE” (FUJIFILM Corporation, priority 2019, published 2022).
# Test system: human iPS cell-derived hepatocytes
# Test: P450-Glo CYP3A4 assay, CYP3A4 activity value per cell
# Type: cell-based
# Conditions: FIG. 1C; added to medium that does not contain FBS, EGF and A83-01; culture period of 1 week
# Procedure: For the cell culture medium, to a medium obtained by mixing equal amounts of a DMEM/F12 basal medium and an RPMI 1640 basal medium, each of the components was added so that the concentration thereof was to be the following final concentration.
# Further, to the above composition, the following components were added in combination to prepare culture media for various hepatocytes,
# Using the above-described various media, human iPS cell-derived hepatocytes (FUJIFILM Wako Pure Chemical Corporation, Cat #: C1026) were seeded on a collagen-coated 96-well plate at 1×10^5 cells per well and cultured in an incubator at 37° C. and 5% carbon dioxide gas, and the medium was exchanged every 24 hours. The luminescence intensity by a P450-Glo CYP3A4 assay (Promega Corporation) was measured by using an EnSpire multimode plate reader (PerkinElmer, Inc.) and corrected by the number of cells in the well to calculate the CYP3A4 activity value per cell in the culture period of 1 week.
compound,measurement,value
NC(=O)c1cccnc1 [nicotinamide],effect on function of hepatocytes (CYP3A4 activity per cell),positive factors for improving the function of hepatocytes
